From PMC6009910, “Tertiary amine derivatives of chlorochalcone as acetylcholinesterase (AChE) and buthylcholinesterase (BuChE) inhibitors: the influence of chlorine, alkyl amine side chain and α,β-unsaturated ketone group” (Journal of Enzyme Inhibition and Medicinal Chemistry, 2016)
“And” between values parts separate entries of the source, which are not always exact repeats. Equal values may be shown once. “Also recorded” adds a separate entry of the source.

Assays:
AChE [1] = target: T1, AChE (Rattus norvegicus, UniProt P37136); experiment: biochemical; assay type: biochemical; conditions: for IC50: rat brain AChE, means ± SD of three experiments; for Selectivity for AChE, IC50 (BuChE)/IC50 (AChE): ratio IC50 (BuChE)/IC50 (AChE)
T1 construct: The brain and serum of Sprague–Dawley rat was used as the resource of AChE and BuChE, respectively; from tissue; host or cells: Sprague-Dawley rat brain
T1 sequence (P37136 32-614): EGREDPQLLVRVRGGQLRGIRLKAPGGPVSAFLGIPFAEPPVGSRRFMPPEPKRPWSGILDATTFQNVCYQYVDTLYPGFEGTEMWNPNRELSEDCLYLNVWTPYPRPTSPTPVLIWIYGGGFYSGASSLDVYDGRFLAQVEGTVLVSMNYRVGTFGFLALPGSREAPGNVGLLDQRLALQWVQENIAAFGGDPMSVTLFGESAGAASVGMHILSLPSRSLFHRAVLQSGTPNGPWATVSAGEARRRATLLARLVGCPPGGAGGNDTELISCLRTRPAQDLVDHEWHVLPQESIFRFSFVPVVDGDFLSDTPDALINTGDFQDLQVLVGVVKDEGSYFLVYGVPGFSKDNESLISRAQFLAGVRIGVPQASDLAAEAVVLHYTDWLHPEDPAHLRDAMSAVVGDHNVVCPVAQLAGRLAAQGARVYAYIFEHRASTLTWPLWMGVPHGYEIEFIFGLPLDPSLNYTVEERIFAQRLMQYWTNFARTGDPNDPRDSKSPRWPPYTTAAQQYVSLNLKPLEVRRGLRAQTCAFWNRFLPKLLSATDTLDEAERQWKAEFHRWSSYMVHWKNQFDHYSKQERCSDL
Procedure: (§1) AChE/BuChE activity assays were conducted by Ellman method with light modification. The brain and serum of Sprague–Dawley rat was used as the resource of AChE and BuChE, respectively. Each compound was dissolved in Tween 80 and diluted with water to various concentrations immediately before use. The reaction mixture containing 40 µL AChE/BuChE, 100 µL acetylthiocholine iodide/S-Butyrylthiocholine iodide, 2.76 mL Na2HPO4/NaH2PO4 buffer (pH 8.0, 0.1 mol/L), and 100 µL different concentrations of test compounds were incubated at 30 °C for 25 min. Then the reaction was terminated via adding 100 µL 20% sodium dodecyl sulfate (SDS), then 100 µL 10 mmol/L 5, 5'-Dithiobis-(2-nitrobenzoic acid) (DTNB) was added to generate the yellow anion 5-thio-2-nitro-benzoic acid. The absorbance of each assay mixture was measured at 412 nm by UV spectroscopy. The IC50 values were calculated by Bliss method and expressed as mean ± SD of the replicates.

BuChE = target: T2, BuChE (Rattus norvegicus, UniProt Q9JKC1); experiment: BuChE inhibition assay (Ellman method); assay type: biochemical, Sprague–Dawley rat
T2 construct: The brain and serum of Sprague–Dawley rat was used as the resource of AChE and BuChE, respectively; from tissue; host or cells: Sprague-Dawley rat serum
T2 sequence (Q9JKC1 24-597): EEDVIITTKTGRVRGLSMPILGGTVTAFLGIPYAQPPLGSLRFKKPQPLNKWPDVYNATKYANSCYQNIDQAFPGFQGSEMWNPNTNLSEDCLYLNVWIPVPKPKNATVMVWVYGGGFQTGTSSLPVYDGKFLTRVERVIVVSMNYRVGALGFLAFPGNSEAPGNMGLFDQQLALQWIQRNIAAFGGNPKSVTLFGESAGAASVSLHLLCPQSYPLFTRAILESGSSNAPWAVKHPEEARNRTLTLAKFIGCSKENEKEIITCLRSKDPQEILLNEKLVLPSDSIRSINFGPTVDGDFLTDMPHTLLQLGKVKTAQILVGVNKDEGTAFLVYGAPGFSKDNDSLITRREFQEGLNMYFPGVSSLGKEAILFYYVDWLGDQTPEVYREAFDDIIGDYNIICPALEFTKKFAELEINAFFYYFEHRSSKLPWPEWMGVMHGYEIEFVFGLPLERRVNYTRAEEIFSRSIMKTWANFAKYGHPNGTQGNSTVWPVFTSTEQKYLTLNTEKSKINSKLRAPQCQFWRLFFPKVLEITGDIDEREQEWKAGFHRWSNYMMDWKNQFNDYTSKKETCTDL
Procedure: as §1

[2] = Log p measurement by shake flask method; assay type: physicochemical; conditions: octanol / PBS (pH =7.4), triplicate
Procedure: Log p, defined as the logarithm of octanol-water partition coefficient is an important parameter to evaluate the lipophilicify of compounds. It can be calculated by determining the concentration of compound in octanol phase and water phase until the partition equilibrium was completed. In present investigation, log p of compounds 4a∼4l was measured by the shake flask method with slight modification, and PBS (pH =7.4) was used as the water phase. The mobile phase was methanol: 0.1% triethylamine (TEA)/80:20 (v/v), at a flow rate of 1.0 mL.min^−1 through a C18 column ([…] ×4.6 mm, 5 µm) at 32 °C with detect wavelength 318 nm. Experiments were conducted in triplicate and log p values were calculated.

AChE [3] = target: T1, AChE; experiment: Kinetic studies of AChE inhibition (Lineweaver–Burk); assay type: biochemical
Procedure: as §1, with “replicates. Rivastigmine was used as the control drug.” for “replicates.”
Kinetic experiment was conducted by a reported method with some modifications. Compound 4l was added into the assay solution and pre-incubated with the enzyme at 30 °C, followed by the addition of 100-µL acetylthiocholine iodide including five concentrations. The assay solution contained 100 µL compound 4l, 100 µL DTNB, 2.76 mL 0.1 mol/L Na2HPO4/NaH2PO4 buffer (pH 8.0). Kinetic profile of AChE was determined by UV spectrophotometer at 412 nm. Additionally, the blank control experiment was conducted with the vehicle to replace compound 4l solution.

Structure (SMILES): O=C(/C=C/c1ccccc1Cl)c1ccc(O)cc1 [Compound 3a, 4'-Hydroxy-2-chlorochalcone]
- IC50 (AChE [1]): > 500 µM
- IC50 (BuChE): > 500 µM

Structure (SMILES): O=C(/C=C/c1cccc(Cl)c1)c1ccc(O)cc1 [Compound 3b, 4'-Hydroxy-3-chlorochalcone]
- IC50 (AChE [1]): > 500 µM
- IC50 (BuChE): > 500 µM

Structure (SMILES): O=C(/C=C/c1ccc(Cl)cc1)c1ccc(O)cc1 [Compound 3c, 4'-Hydroxy-4-chlorochalcone]
- IC50 (AChE [1]): > 500 µM
- IC50 (BuChE): > 500 µM

Structure (SMILES): CN(C)CCOc1ccc(C(=O)/C=C/c2ccccc2Cl)cc1 [Compound 4a, (E)-3–(2-chlorophenyl)-1–(4-(2-(dimethylamino)ethoxy)phenyl)prop-2-en-1-one]
- IC50 (AChE [1]): 2.11 ± 0.38 µM
- Selectivity for AChE, IC50 (BuChE)/IC50 (AChE) (AChE [1]): 19.5
- IC50 (BuChE): 41.1 ± 2.31 µM
- logP [2]: 1.75

Structure (SMILES): CN(C)CCOc1ccc(C(=O)/C=C/c2cccc(Cl)c2)cc1 [Compound 4b, (E)-3–(3-chlorophenyl)-1–(4-(2-(dimethylamino)ethoxy)phenyl)prop-2-en-1-one]
- IC50 (AChE [1]): 3.76 ± 0.26 µM
- Selectivity for AChE, IC50 (BuChE)/IC50 (AChE) (AChE [1]): 8.5
- IC50 (BuChE): 32.1 ± 7.16 µM
- logP [2]: 1.83

Structure (SMILES): CN(C)CCOc1ccc(C(=O)/C=C/c2ccc(Cl)cc2)cc1 [Compound 4c, (E)-3–(4-chlorophenyl)-1–(4-(2-(dimethylamino)ethoxy)phenyl)prop-2-en-1-one]
- IC50 (AChE [1]): 1.55 ± 0.16 µM
- Selectivity for AChE, IC50 (BuChE)/IC50 (AChE) (AChE [1]): 28.1
- IC50 (BuChE): 43.6 ± 6.94 µM
- logP [2]: 1.61

Structure (SMILES): CCN(CC)CCOc1ccc(C(=O)/C=C/c2ccccc2Cl)cc1 [Compound 4d, (E)-3–(2-chlorophenyl)-1–(4-(2-(diethylamino)ethoxy)phenyl)prop-2-en-1-one]
- IC50 (AChE [1]): 5.42 ± 0.2 µM
- Selectivity for AChE, IC50 (BuChE)/IC50 (AChE) (AChE [1]): 11.8
- IC50 (BuChE): 63.8 ± 9.21 µM
- logP [2]: 1.63

Structure (SMILES): CCN(CC)CCOc1ccc(C(=O)/C=C/c2cccc(Cl)c2)cc1 [Compound 4e, (E)-3–(3-chlorophenyl)-1–(4-(2-(diethylamino)ethoxy)phenyl)prop-2-en-1-one]
- IC50 (AChE [1]): 5.83 ± 0.42 µM
- Selectivity for AChE, IC50 (BuChE)/IC50 (AChE) (AChE [1]): 13.8
- IC50 (BuChE): 80.2 ± 7.18 µM
- logP [2]: 1.62

Structure (SMILES): CCN(CC)CCOc1ccc(C(=O)/C=C/c2ccc(Cl)cc2)cc1 [Compound 4f, (E)-3–(4-chlorophenyl)-1–(4-(2-(diethylamino)ethoxy)phenyl)prop-2-en-1-one]
- IC50 (AChE [1]): 3.78 ± 0.39 µM
- Selectivity for AChE, IC50 (BuChE)/IC50 (AChE) (AChE [1]): 26.7
- IC50 (BuChE): 101 ± 17.2 µM
- logP [2]: 1.69

Structure (SMILES): O=C(/C=C/c1ccccc1Cl)c1ccc(OCCN2CCCCC2)cc1 [Compound 4g, (E)-3–(2-chlorophenyl)-1–(4-(2-(piperidin-1-yl)ethoxy)phenyl)prop-2-en-1-one]
- IC50 (AChE [1]): 1.8 ± 0.48 µM
- Selectivity for AChE, IC50 (BuChE)/IC50 (AChE) (AChE [1]): 19.8
- IC50 (BuChE): 35.6 ± 7.31 µM
- logP [2]: 1.75

Structure (SMILES): O=C(/C=C/c1cccc(Cl)c1)c1ccc(OCCN2CCCCC2)cc1 [Compound 4h, (E)-3–(3-chlorophenyl)-1–(4-(2-(piperidin-1-yl)ethoxy)phenyl)prop-2-en-1-one]
- IC50 (AChE [1]): 1.31 ± 0.17 µM
- Selectivity for AChE, IC50 (BuChE)/IC50 (AChE) (AChE [1]): 18.7
- IC50 (BuChE): 24.5 ± 6.14 µM
- logP [2]: 1.72

Structure (SMILES): O=C(/C=C/c1ccc(Cl)cc1)c1ccc(OCCN2CCCCC2)cc1 [Compound 4i, (E)-3–(4-chlorophenyl)-1–(4-(2-(piperidin-1-yl)ethoxy)phenyl)prop-2-en-1-one]
- IC50 (AChE [1]): 0.91 ± 0.09 µM
- Selectivity for AChE, IC50 (BuChE)/IC50 (AChE) (AChE [1]): 125.5
- IC50 (BuChE): 114 ± 26.1 µM
- logP [2]: 1.79

Structure (SMILES): O=C(/C=C/c1ccccc1Cl)c1ccc(OCCN2CCCC2)cc1 [Compound 4j, (E)-3–(2-chlorophenyl)-1–(4-(2-(pyrrolidin-1-yl)ethoxy)phenyl)prop-2-en-1-one]
- IC50 (AChE [1]): 0.81 ± 0.03 µM
- Selectivity for AChE, IC50 (BuChE)/IC50 (AChE) (AChE [1]): 39.6
- IC50 (BuChE): 32.1 ± 5.71 µM
- logP [2]: 1.85

Structure (SMILES): O=C(/C=C/c1cccc(Cl)c1)c1ccc(OCCN2CCCC2)cc1 [Compound 4k, (E)-3–(3-chlorophenyl)-1–(4-(2-(pyrrolidin-1-yl)ethoxy)phenyl)prop-2-en-1-one]
- IC50 (AChE [1]): 0.28 ± 0.05 µM
- Selectivity for AChE, IC50 (BuChE)/IC50 (AChE) (AChE [1]): 110.9
- IC50 (BuChE): 31.1 ± 3.41 µM
- logP [2]: 1.81

Structure (SMILES): O=C(/C=C/c1ccc(Cl)cc1)c1ccc(OCCN2CCCC2)cc1 [Compound 4l, (E)-3–(4-chlorophenyl)-1–(4-(2-(pyrrolidin-1-yl)ethoxy)phenyl)prop-2-en-1-one]
- IC50 (AChE [1]): 0.17 ± 0.06 µM
- Selectivity for AChE, IC50 (BuChE)/IC50 (AChE) (AChE [1]): 667 and 667.2
- IC50 (BuChE): 113 ± 18.2 µM
- logP [2]: 1.83
- noncompetitive constant (Ki’) (AChE [3]; AChE, mixed-type inhibition): 2.95 µM
- inhibition type (AChE [3]; Lineweaver–Burk analysis, Km increased and Vmax decreased with concentration): mixed-type inhibition; also recorded: mixed-type inhibitor
- Ki’ (AChE [3]; Supplement Table 2): 2.95 µM
- Vmax (AChE [3]; compound 4l at 0.22 µM): 0.0273 ΔAmin-1
- Vmax (AChE [3]; compound 4l at 0.43 µM): 0.0263 ΔAmin-1
- Vmax (AChE [3]; compound 4l at […]): 0.0230 ΔAmin-1
- Ki (AChE [3]; read-out: competitive inhibition constant (Ki)): 0.38 µM

Structure (SMILES): CC(=O)N1N=C(c2ccc(OCCN3CCCCC3)cc2)CC1c1ccc(Cl)cc1 (stereo not shown) [Compound 5a, 1–(5-(4-Chlorophenyl)-3–(4-(2-(piperidin-1-yl)ethoxy)phenyl)-4,5-dihydro-1H-pyrazol-1-yl) ethan-1-one]
- IC50 (AChE [1]): 5.94 ± 0.27 µM
- Selectivity for AChE, IC50 (BuChE)/IC50 (AChE) (AChE [1]): 16.4
- IC50 (BuChE): 97.6 ± 3.78 µM

Structure (SMILES): CC(=O)N1N=C(c2ccc(OCCN3CCCC3)cc2)CC1c1ccccc1Cl (stereo not shown) [Compound 5b, 1–(5-(2-Chlorophenyl)-3–(4-(2-(pyrrolidin-1-yl)ethoxy)phenyl)-4,5-dihydro-1H-pyrazol-1-yl) ethan-1-one]
- IC50 (AChE [1]): 6.31 ± 0.16 µM
- Selectivity for AChE, IC50 (BuChE)/IC50 (AChE) (AChE [1]): 4.74
- IC50 (BuChE): 29.9 ± 1.25 µM

Structure (SMILES): CC(=O)N1N=C(c2ccc(OCCN3CCCC3)cc2)CC1c1cccc(Cl)c1 (stereo not shown) [Compound 5c, 1–(5-(3-Chlorophenyl)-3–(4-(2-(pyrrolidin-1-yl)ethoxy)phenyl)-4,5-dihydro-1H-pyrazol-1-yl)ethan-1-one]
- IC50 (AChE [1]): 2.41 ± 0.34 µM
- Selectivity for AChE, IC50 (BuChE)/IC50 (AChE) (AChE [1]): 11.5
- IC50 (BuChE): 27.6 ± 2.58 µM

Structure (SMILES): CC(=O)N1N=C(c2ccc(OCCN3CCCC3)cc2)CC1c1ccc(Cl)cc1 (stereo not shown) [Compound 5d, 1–(5-(4-Chlorophenyl)-3–(4-(2-(pyrrolidin-1-yl)ethoxy)phenyl)-4,5-dihydro-1H-pyrazol-1-yl) ethan-1-one]
- IC50 (AChE [1]): 2.04 ± 0.26 µM
- Selectivity for AChE, IC50 (BuChE)/IC50 (AChE) (AChE [1]): 52.96
- IC50 (BuChE): 108 ± 5.56 µM
